Test results published in patent US6737383B1, “Herbicidal oxadiazolidines” (priority 1999, dated 2004).

Columns and labels:
bamyardgrass = assay: Test B flood test barnyardgrass; type: in vivo, Echinochloa crus-galli
Method in brief: (§1)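 Flood test on plants grown to the 2-leaf stage; treated plants kept in greenhouse twelve to sixteen days, then visually rated against controls on a 0 (no effect) to 10 (complete control) scale.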

duck salad = assay: Test B flood test duck salad; type: in vivo, Heteranthera limosa
Method in brief: as §1

wild oat = assay: Test B pre/postemergence wild oat; type: in vivo, Avena fatua
Method in brief: (§2)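 Herbicidal effect was estimated by eye on a ten-point control scale after plants spent twelve to sixteen days in a greenhouse following soil or foliar treatment. Foliar sprays targeted plants at one to four leaves; all doses were formulated in a non-phytotoxic solvent with surfactant.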

rape = assay: Test B pre/postemergence rape; type: in vivo, Brassica napus
Method in brief: as §2

corn = assay: Test B pre/postemergence corn; type: in vivo, Zea mays
Method in brief: as §2

cocklebur = assay: Test B pre/postemergence cocklebur; type: in vivo, Xanthium strumarium
Method in brief: as §2

morningglory = assay: Test B pre/postemergence morningglory; type: in vivo, Ipomoea hederacea
Method in brief: as §2

giant foxtail = assay: Test B pre/postemergence giant foxtail; type: in vivo, Setaria faberii
Method in brief: as §2

velvetleaf = assay: Test B pre/postemergence velvetleaf; type: in vivo, Abutilon theophrasti
Method in brief: as §2

smallflower flatsedge = assay: Test B flood test smallflower flatsedge; type: in vivo, Cyperus difformis
Method in brief: as §1

surinam grass = assay: Test B pre/postemergence surinam grass; type: in vivo, Brachiaria decumbens
Method in brief: as §2

soybean = assay: Test B pre/postemergence soybean; type: in vivo, Glycine max
Method in brief: as §2

blackgrass = assay: Test B pre/postemergence blackgrass; type: in vivo, Alopecurus myosuroides
Method in brief: as §2

bedstraw = assay: Test B pre/postemergence bedstraw; type: in vivo, Galium aparine
Method in brief: as §2

wheat = assay: Test B pre/postemergence wheat; type: in vivo, Triticum aestivum
Method in brief: as §2

crabgrass = assay: Test B pre/postemergence crabgrass; type: in vivo, Digitaria sanguinalis
Method in brief: as §2

[1] = Rate 62 g/ha, flood test species, Pre-emergence, visual evaluation after twelve to sixteen days
[2] = Rate 125 g/ha, under heading Pre-emergence, flood test species, visual evaluation after twelve to sixteen days
[3] = Rate 250 g/ha, Pre-emergence (flood test species), scale 0 to 10, 0 is no effect, 10 is complete control
[4] = Rate 500 g/ha, Pre-emergence section of Table B, 0 to 10 scale (0 no effect, 10 complete control)
[5] = Postemergence, Rate 62 g/ha, scale 0 to 10, 0 is no effect, 10 is complete control
[6] = Postemergence, Rate 125 g/ha, scale of 0 to 10 where 0 is no effect and 10 is complete control
[7] = Postemergence, Rate 250 g/ha, scale of 0 to 10, 0 is no effect, 10 is complete control
[8] = Preemergence, Rate 62 g/ha, scale 0 to 10 (0 no effect, 10 complete control)
[9] = Preemergence, Rate 125 g/ha, scale of 0 to 10 where 0 is no effect and 10 is complete control
[10] = Preemergence, Rate 250 g/ha, scale 0 to 10 (0 no effect, 10 complete control)
[11] = Preemergence, Rate 500 g/ha, scale of 0 to 10 where 0 is no effect and 10 is complete control
[12] = Postemergence, Rate 500 g/ha, scale of 0 to 10 where 0 is no effect and 10 is complete control

CCOC(Cn1c(=O)on(C(=O)N(c2ccc(F)cc2F)C(C)C)c1=O)OCC [Compound 630]
Plant response rating, Barnyardgrass (0 to 10 scale, 0 is no effect, 10 is complete control) (bamyardgrass; [1]): 0 | Barnyardgrass plant response rating (0 to 10 scale, 0 is no effect, 10 is complete control) (bamyardgrass; [2]): 0 | Barnyardgrass plant response rating (bamyardgrass; [3]): 0 | Barnyardgrass plant response rating (bamyardgrass; [4]): 0 | Plant response rating, Ducksalad (0 to 10 scale, 0 is no effect, 10 is complete control) (duck salad; [1]): 0 | Ducksalad plant response rating (0 to 10 scale, 0 is no effect, 10 is complete control) (duck salad; [2]): 0 | Ducksalad plant response rating (duck salad; [3]): 0 | Ducksalad plant response rating (duck salad; [4]): 0 | Plant response rating, Wild oats (wild oat; [5]): 0 | Plant response rating, Wild oats (wild oat; [6]): 0 | Wild oats plant response rating (wild oat; [7]): 0 | Wild oats plant response rating (wild oat; [8]): 0 | Wild oats plant response rating (wild oat; [9]): 3 | Plant response rating, Wild oats (wild oat; [10]): 8 | Plant response rating, Wild oats (wild oat; [11]): 8 | Plant response rating, Rape (rape; [5]): 0 | Plant response rating, Rape (rape; [6]): 0 | Rape plant response rating (rape; [7]): 0 | Plant response rating, Rape (rape; [12]): 4 | Rape plant response rating (rape; [8]): 0 | Rape plant response rating (rape; [9]): 0 | Plant response rating, Rape (rape; [10]): 0 | Plant response rating, Rape (rape; [11]): 0 | Plant response rating, Corn (corn; [5]): 0 | Plant response rating, Corn (corn; [6]): 0 | Corn plant response rating (corn; [7]): 2 | Plant response rating, Corn (corn; [12]): 5 | Corn plant response rating (corn; [8]): 0 | Corn plant response rating (corn; [9]): 0 | Plant response rating, Corn (corn; [10]): 3 | Plant response rating, Corn (corn; [11]): 5 | Plant response rating, Cocklebur (cocklebur; [5]): 0 | Plant response rating, Cocklebur (cocklebur; [6]): 0 | Cocklebur plant response rating (cocklebur; [7]): 0 | Plant response rating, Cocklebur (cocklebur; [12]): 0 | Cocklebur plant response rating (cocklebur; [8]): 0 | Cocklebur plant response rating (cocklebur; [9]): 0 | Plant response rating, Cocklebur (cocklebur; [11]): 0 | Plant response rating, Morningglory (morningglory; [5]): 1 | Plant response rating, Morningglory (morningglory; [6]): 2 | Morningglory plant response rating (morningglory; [7]): 2 | Plant response rating, Morningglory (morningglory; [12]): 4 | Morningglory plant response rating (morningglory; [8]): 0 | Morningglory plant response rating (morningglory; [9]): 0 | Plant response rating, Morningglory (morningglory; [10]): 0 | Plant response rating, Morningglory (morningglory; [11]): 2 | Plant response rating, Giant foxtail (giant foxtail; [5]): 2 | Plant response rating, Giant foxtail (giant foxtail; [6]): 7 | Giant foxtail plant response rating (giant foxtail; [7]): 8 | Plant response rating, Giant foxtail (giant foxtail; [12]): 9 | Giant foxtail plant response rating (giant foxtail; [8]): 9 | Giant foxtail plant response rating (giant foxtail; [9]): 10 | Plant response rating, Giant foxtail (giant foxtail; [10]): 10 | Plant response rating, Giant foxtail (giant foxtail; [11]): 10 | Plant response rating, Velvetleaf (velvetleaf; [5]): 0 | Plant response rating, Velvetleaf (velvetleaf; [6]): 4 | Velvetleaf plant response rating (velvetleaf; [7]): 4 | Velvetleaf plant response rating (velvetleaf; [8]): 0 | Velvetleaf plant response rating (velvetleaf; [9]): 1 | Plant response rating, Velvetleaf (velvetleaf; [10]): 6 | Plant response rating, Velvetleaf (velvetleaf; [11]): 7 | Plant response rating, S. Flatsedge (0 to 10 scale, 0 is no effect, 10 is complete control) (smallflower flatsedge; [1]): 0 | S. Flatsedge plant response rating (0 to 10 scale, 0 is no effect, 10 is complete control) (smallflower flatsedge; [2]): 0 | S. Flatsedge plant response rating (smallflower flatsedge; [3]): 0 | S. Flatsedge plant response rating (smallflower flatsedge; [4]): 0 | Plant response rating, B. signalgrass (surinam grass; [5]): 0 | Plant response rating, B. signalgrass (surinam grass; [6]): 0 | B. signalgrass plant response rating (surinam grass; [7]): 1 | Plant response rating, B. signalgrass (surinam grass; [12]): 3 | B. signalgrass plant response rating (surinam grass; [8]): 0 | B. signalgrass plant response rating (surinam grass; [9]): 3 | Plant response rating, B. signalgrass (surinam grass; [10]): 7 | Plant response rating, B. signalgrass (surinam grass; [11]): 8 | Plant response rating, Soybean (soybean; [5]): 4 | Soybean plant response rating (soybean; [7]): 5 | Soybean plant response rating (soybean; [8]): 0 | Soybean plant response rating (soybean; [9]): 0 | Plant response rating, Soybean (soybean; [10]): 0 | Plant response rating, Soybean (soybean; [11]): 3 | Plant response rating, Blackgrass (blackgrass; [5]): 0 | Plant response rating, Blackgrass (blackgrass; [6]): 0 | Blackgrass plant response rating (blackgrass; [7]): 3 | Plant response rating, Blackgrass (blackgrass; [12]): 9 | Blackgrass plant response rating (blackgrass; [8]): 5 | Blackgrass plant response rating (blackgrass; [9]): 8 | Plant response rating, Blackgrass (blackgrass; [10]): 8 | Plant response rating, Blackgrass (blackgrass; [11]): 10 | Plant response rating, Bedstraw (bedstraw; [5]): 0 | Bedstraw plant response rating (bedstraw; [8]): 0 | Bedstraw plant response rating (bedstraw; [9]): 0 | Plant response rating, Bedstraw (bedstraw; [10]): 0 | Plant response rating, Bedstraw (bedstraw; [11]): 7 | Plant response rating, Wheat (wheat; [5]): 0 | Plant response rating, Wheat (wheat; [6]): 0 | Wheat plant response rating (wheat; [7]): 0 | Wheat plant response rating (wheat; [8]): 0 | Wheat plant response rating (wheat; [9]): 0 | Plant response rating, Wheat (wheat; [10]): 3 | Plant response rating, Wheat (wheat; [11]): 8 | Plant response rating, Crabgrass (crabgrass; [5]): 1 | Plant response rating, Crabgrass (crabgrass; [6]): 5 | Crabgrass plant response rating (crabgrass; [7]): 8 | Crabgrass plant response rating (crabgrass; [8]): 7 | Crabgrass plant response rating (crabgrass; [9]): 8 | Plant response rating, Crabgrass (crabgrass; [10]): 9 | Plant response rating, Crabgrass (crabgrass; [11]): 9
